Entries after “also recorded” stand apart in the source; their conditions may differ. Where two headings read alike, the source gives them in different places.
Assays:
[1] = system: Gα proteins fused to the μ-opioid receptor (MOR); experiment: Competition radioligand binding at six Gα proteins fused to MOR
[2] = system: mu-opioid receptor fused to Gαi1-RLuc8 chimera (MOR-Gi1RLuc); details: for binding to and GPPNHP elution from membranes (in words): unfused MOR vs MOR-Gαi1 membranes
[3] = target: T1, μ-opioid receptor (MOR) fused to Gαi1 protein (MOR-Gi1) (Homo sapiens, UniProt P35372+P63096); experiment: ADSoRB screen with radiolabeled agonist tracer at MOR-Gi1 microsomes; assay type: binding
T1 construct: expressed in transfected cells; host or cells: HEK293 suspension cells, microsomal membranes
T1 sequence (P35372+P63096 fused): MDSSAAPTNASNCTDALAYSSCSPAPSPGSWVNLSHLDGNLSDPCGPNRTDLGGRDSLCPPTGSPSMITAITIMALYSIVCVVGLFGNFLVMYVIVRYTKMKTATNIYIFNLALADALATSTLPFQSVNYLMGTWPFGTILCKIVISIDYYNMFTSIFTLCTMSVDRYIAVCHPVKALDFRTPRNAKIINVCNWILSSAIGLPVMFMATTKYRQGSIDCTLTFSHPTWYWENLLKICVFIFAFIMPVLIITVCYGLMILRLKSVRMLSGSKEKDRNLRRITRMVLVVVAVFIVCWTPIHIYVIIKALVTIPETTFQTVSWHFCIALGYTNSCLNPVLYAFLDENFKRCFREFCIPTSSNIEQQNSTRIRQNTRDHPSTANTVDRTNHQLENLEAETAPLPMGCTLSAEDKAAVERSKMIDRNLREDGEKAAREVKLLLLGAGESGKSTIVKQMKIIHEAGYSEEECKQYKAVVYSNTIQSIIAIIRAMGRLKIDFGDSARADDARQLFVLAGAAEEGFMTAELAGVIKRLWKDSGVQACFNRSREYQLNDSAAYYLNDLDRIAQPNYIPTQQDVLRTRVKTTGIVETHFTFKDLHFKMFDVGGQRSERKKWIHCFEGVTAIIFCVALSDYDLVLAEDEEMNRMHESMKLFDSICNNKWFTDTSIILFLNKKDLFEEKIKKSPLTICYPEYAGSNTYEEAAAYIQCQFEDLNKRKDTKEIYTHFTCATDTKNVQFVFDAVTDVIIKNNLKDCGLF

[4] = target: T2, mu-opioid receptor unfused (MOR) (Homo sapiens, UniProt P35372); assay type: binding
T2 construct: expressed in transfected cells
T2 sequence (P35372 whole entry, the tested form may be a part): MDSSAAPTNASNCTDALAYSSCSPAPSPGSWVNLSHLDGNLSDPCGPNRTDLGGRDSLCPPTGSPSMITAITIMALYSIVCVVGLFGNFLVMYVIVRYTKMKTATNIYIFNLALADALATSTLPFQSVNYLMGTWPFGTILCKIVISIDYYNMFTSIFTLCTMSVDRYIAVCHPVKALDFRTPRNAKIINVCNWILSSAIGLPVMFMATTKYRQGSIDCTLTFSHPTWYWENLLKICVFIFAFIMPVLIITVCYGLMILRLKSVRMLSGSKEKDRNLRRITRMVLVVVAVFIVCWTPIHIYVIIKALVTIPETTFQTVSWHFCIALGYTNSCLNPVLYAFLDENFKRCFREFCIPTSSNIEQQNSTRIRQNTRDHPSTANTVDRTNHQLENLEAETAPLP

[5] = target: T3, μ-opioid receptor (MOR) (Homo sapiens, UniProt P35372); experiment: TRUPATH after alkylation of MOR with β-FNA (receptor reserve); assay type: cell-based; details: increasing β-FNA treatment
T3 construct: expressed in transfected cells
T3 sequence (P35372 whole entry): as the sequence (P35372 whole entry, the tested form may be a part) above

[6] = system: HEK293 cells; experiment: Calcium release in HEK293 cells without serotonin receptors; assay type: cell-based; details: cells do not express serotonin (5-HT) receptors
[7] = target: T4, KOR, Gαi/o-class TRUPATH sensors (Homo sapiens, UniProt P41145); assay type: cell-based
T4 construct: expressed in transfected cells
T4 sequence (P41145 whole entry): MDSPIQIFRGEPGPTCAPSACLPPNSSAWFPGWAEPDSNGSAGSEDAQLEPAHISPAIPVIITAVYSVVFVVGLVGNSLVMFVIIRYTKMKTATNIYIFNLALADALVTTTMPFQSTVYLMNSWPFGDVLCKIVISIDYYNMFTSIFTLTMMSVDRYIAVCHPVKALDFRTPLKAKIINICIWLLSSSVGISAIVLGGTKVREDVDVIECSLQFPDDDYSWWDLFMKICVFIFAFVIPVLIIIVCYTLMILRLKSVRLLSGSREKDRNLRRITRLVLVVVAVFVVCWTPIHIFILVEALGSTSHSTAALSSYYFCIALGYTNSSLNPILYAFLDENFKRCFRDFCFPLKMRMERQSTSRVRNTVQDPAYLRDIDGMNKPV

[8] = system: 5-HT5A receptor fused to Gi, Gq or Gs; experiment: [35S]GTPγS loading at 5-HT5A receptor-Gα fusions; assay type: biochemical; details: Gi vs Gq vs Gs fusions
[9] = system: serotonin-5A receptor (HTR5A)-Gαi1 RLuc fusion; experiment: Fusion BRET at HTR5A-Gαi1 RLuc; assay type: cell-based

C[C@@H](NC(=O)[C@@H](N)Cc1ccc(O)cc1)C(=O)NCC(=O)N(C)[C@@H](Cc1ccccc1)C(=O)NCCO [DAMGO]
affinity shift vs unfused MOR (in words) [1]: shift compared to unfused MOR | binding to and GPPNHP elution from membranes (in words) [2]: ability to bind and elute

C[C@@H](NC(=O)[C@@H](N)Cc1ccc(O)cc1)C(=O)NCC(=O)N(C)[C@@H](Cc1ccccc1)C(=O)NCCO [[3H]DAMGO]
elution upon complex dissociation/uncoupling with GPPNHP ([3]; GPPNHP elution): 30 % of total agonist added | elution with buffer control ([3]; buffer elution): 2 % of total agonist added | elution upon complex dissociation with GPPNHP [4]: 0.8 % of total | unbound tracer [4]: 67% | unbound tracer ([2]; MOR-Gi1RLuc complex): 23% | elution upon complex dissociation with GPPNHP ([2]; high affinity MOR-Gi1RLuc complex): 7 % of total | binding to and GPPNHP elution from membranes (in words) ([2]; listed as [^3H]DAMGO): binds more strongly to the MOR-Gαi1 complex; also recorded: elutes to a greater extent

COC(=O)/C=C/C(=O)N[C@@H]1CC[C@@]2(O)[C@H]3Cc4ccc(O)c5c4[C@@]2(CCN3CC2CC2)[C@H]1O5 [β-FNA]
effect on maximal efficacy (Emax) [5]: strong inhibition of maximal efficacy | effect on potency [5]: minimal effect on potency

COc1cc(CC(C)N)c(OC)cc1I (centres unmarked) [DOI]
calcium release (in words) [6]: do not cause calcium release

COC(=O)N1CCN(C(=O)Cc2ccc(Cl)c(Cl)c2)C(CN2CCCC2)C1 (centres unmarked) [GR89,696]
efficacy across transducers (in words) [7]: activated all transducers with equal efficacy

Leu-enkephalin
affinity shift vs unfused MOR (in words) [1]: shift compared to unfused MOR

COc1ccsc1CNCC[C@@]1(c2ccccn2)CCOC2(CCCC2)C1 [TRV130]
affinity shift vs unfused MOR (in words) [1]: shift compared to unfused MOR

CCN(CC)C(=O)N[C@H]1C=C2c3cccc4[nH]cc(c34)C[C@H]2N(C)C1 [Lisuride]
calcium release (in words) [6]: do not cause calcium release

NCCc1c[nH]c2ccc(O)cc12 [5-HT]
calcium release (in words) [6]: do not cause calcium release | G protein activation ([35S]GTPγS loading, in words) [8]: only seen at the Gi fusion | BRET response (in words) [9]: reliable and substantial serotonin response

O=C(c1ccccn1)N(Cc1cccs1)C1(C(=O)NC2CCCCC2)CCCCC1 [ML139]
efficacy across transducers (in words) [7]: activated all transducers with equal efficacy

— patent US12360111B2, “G protein-coupled receptor screening systems” (The University of North Carolina at Chapel Hill, priority 2018, dated 2025)
